ChEMBL document CHEMBL6096722, “A Hypoxia-Activated BODIPY-Azo Anticancer Prodrug for Bimodal Chemo-Photodynamic Therapy” (J Med Chem, 2025)
The source made the active and inactive calls. No cut-off for these calls is given here.

Assays:
[1] = Photostability of compound in PBS buffer at pH 7.4 at 10 uM under 20 W/cm2 white LED light irradiation measured upto 10 mins by absorption based assay; type: physicochemical; settings: pH 7.4, 10 min
[2] = Photostability of compound in PBS buffer at pH 7.4 at 10 uM under 20 W/cm2 white LED light irradiation measured for 60 mins by absorption based assay; type: physicochemical; settings: pH 7.4, 1 h
[3] = Induction of singlet oxygen quantum yield under irradiation with 590 nm LED light by DPBF based assay; type: functional
A-375 [4] = assay: Cytotoxicity against human A-375 cells assessed as cell viability at 0.25 to 16 uM incubated for 4 hrs by CCK-8 assay; type: functional; settings: dose 0.25-16 µM
A-375 [5] = assay: Cytotoxicity against human A-375 cells assessed as cell viability at 100 uM incubated for 4 hrs by CCK-8 assay; type: functional; settings: read-out: Activity
[6] = Cytotoxicity against human HUVEC cells assessed as cell viability at upto 100 uM incubated for 4 hrs by CCK-8 assay; type: toxicity, cell-based; settings: read-out: Activity
A-375 [7] = assay: Cytotoxicity against human A-375 cells assessed as cell viability at 100 uM preincubated with compound for 4 hrs followed by light irradiation for 30 mins and measured after 24 hrs by CCK-8 assay; type: functional, cell-based; settings: time 28.5 hrs
A-375 [8] = assay: Cytotoxicity against human A-375 cells assessed as cell viability at >1 uM preincubated with compound for 4 hrs followed by light irradiation for 30 mins and measured after 24 hrs by CCK-8 assay; type: functional, cell-based; settings: time 28.5 hrs
A-375 [9] = assay: Cytotoxicity against human A-375 cells assessed as cell viability at upto 100 uM preincubated with compound for 4 hrs followed by light irradiation for 30 mins and measured after 24 hrs under hypoxic condition by CCK-8 assay; type: functional, cell-based; settings: time 28.5 hrs
A-375 [10] = assay: Cytotoxicity against human A-375 cells assessed as cell viability at upto 100 uM incubated for 4 hrs under hypoxic condition by CCK-8 assay; type: functional, cell-based
A-375 [11] = assay: Antitumor activity against human A-375 cells assessed as cell viability incubated for 4 hrs under normoxic condition by MTT assay; type: functional, cell-based; settings: A-375, 4 h
A-375 [12] = assay: Antitumor activity against human A-375 cells assessed as cell viability incubated for 4 hrs under hypoxia condition by MTT assay; type: functional, cell-based; settings: A-375, 4 h
A-375 [13] = assay: Antitumor activity against human A-375 cells assessed as cell viability preincubated with compound for 4 hrs followed by light irradiation for 30 mins and measured after 24 hrs under normoxic condition by MTT assay; type: functional, cell-based; settings: A-375, light or radiation study
A-375 [14] = assay: Antitumor activity against human A-375 cells assessed as cell viability preincubated with compound for 4 hrs followed by light irradiation for 30 mins and measured after 24 hrs under hypoxic condition by MTT assay; type: functional, cell-based; settings: A-375, light or radiation study
[15] = Selectivity index, ratio of IC50 for antitumor activity against human A-375 cells assessed as cell viability incubated for 4 hrs under hypoxic condition by MTT assay to IC50 for antitumor activity against human A-375 cells assessed as cell viability incubated for 4 hrs under normoxic condition by MTT assay; type: functional
A-375 [16] = assay: Induction of ROS generation in human A-375 cells assessed as increase in green fluorescence at 10 uM preincubated with compound for 24 hrs followed by light irradiation for 30 mins and measured after 30 mins by DCFH-DA staining based fluorescence microscopic analysis; type: functional, cell-based; settings: time 25.0 hrs
A-375 [17] = assay: Induction of ROS generation in human A-375 cells assessed as increase fluorescence intensity at 10 uM incubated with compound for 24 hrs by DCFH-DA staining based analysis; type: functional, cell-based
[18] = Retention time of the compound by HPLC-MASS analysis; type: physicochemical
A-375 [19] = assay: Anticancer activity against human A-375 cells measured at 12 to 30 hrs under hypoxic condition; type: functional, cell-based; settings: time 12-30 hrs
A-375 [20] = assay: Anticancer activity against human A-375 cells measured at 24 hrs under hypoxic condition; type: functional, cell-based
A-375 [21] = assay: Antitumor activity against human A-375 cells xenografted in male BALB/c mouse assessed as tumor growth inhibition at 2.9 mg/ml, ip measured for 60 mins with light irradiation; type: functional; settings: A-375, light or radiation study, 1 h, read-out: TGI
[22] = Toxicity in BALB/c mouse assessed change in body weight at 2.9 mg/ml, ip measured for 60 mins with light irradiation; type: organism-based; settings: in vivo, 1 h
[23] = Toxicity in BALB/c mouse assessed at 2.9 mg/ml, ip assessed as morphological changes in tumor measured for 60 mins with light irradiation by H and E staining based analysis; type: organism-based; settings: in vivo, 1 h
A-375 [24] = assay: Induction of apoptosis in human A-375 cells assessed as viable cells at 2 uM incubated for 24 hrs under hypoxia condition by Annexin V-FITC staining based flow cytometry analysis; type: functional; settings: read-out: Activity
A-375 [25] = assay: Induction of apoptosis in human A-375 cells assessed as early apoptotic cells at 2 uM incubated for 24 hrs under hypoxia condition by Annexin V-FITC staining based flow cytometry analysis; type: functional
A-375 [26] = assay: Induction of apoptosis in human A-375 cells assessed as late apoptotic cells at 2 uM incubated for 24 hrs under hypoxia condition by Annexin V-FITC staining based flow cytometry analysis; type: functional
A-375 [27] = assay: Induction of apoptosis in human A-375 cells assessed as necrotic cells at 2 uM incubated for 24 hrs under hypoxia condition by Annexin V-FITC staining based flow cytometry analysis; type: functional
A-375 [28] = assay: Induction of apoptosis in human A-375 cells assessed as viable cells at 4 uM incubated for 24 hrs under hypoxia condition by Annexin V-FITC staining based flow cytometry analysis; type: functional; settings: read-out: Activity
A-375 [29] = assay: Induction of apoptosis in human A-375 cells assessed as early apoptotic cells at 4 uM incubated for 24 hrs under hypoxia condition by Annexin V-FITC staining based flow cytometry analysis; type: functional
A-375 [30] = assay: Induction of apoptosis in human A-375 cells assessed as late apoptotic cells at 4 uM incubated for 24 hrs under hypoxia condition by Annexin V-FITC staining based flow cytometry analysis; type: functional
A-375 [31] = assay: Induction of apoptosis in human A-375 cells assessed as necrotic cells at 4 uM incubated for 24 hrs under hypoxia condition by Annexin V-FITC staining based flow cytometry analysis; type: functional
A-375 [32] = assay: Induction of apoptosis in human A-375 cells assessed as viable cells at 6 uM incubated for 24 hrs under hypoxia condition by Annexin V-FITC staining based flow cytometry analysis; type: functional; settings: read-out: Activity
A-375 [33] = assay: Induction of apoptosis in human A-375 cells assessed as early apoptotic cells at 6 uM incubated for 24 hrs under hypoxia condition by Annexin V-FITC staining based flow cytometry analysis; type: functional
A-375 [34] = assay: Induction of apoptosis in human A-375 cells assessed as late apoptotic cells at 6 uM incubated for 24 hrs under hypoxia condition by Annexin V-FITC staining based flow cytometry analysis; type: functional
A-375 [35] = assay: Induction of apoptosis in human A-375 cells assessed as necrotic cells at 6 uM incubated for 24 hrs under hypoxia condition by Annexin V-FITC staining based flow cytometry analysis; type: functional
A-375 [36] = assay: Induction of apoptosis in human A-375 cells assessed as viable cells at 2 uM incubated for 24 hrs under normoxia condition by Annexin V-FITC staining based flow cytometry analysis; type: functional; settings: read-out: Activity
A-375 [37] = assay: Induction of apoptosis in human A-375 cells assessed as early apoptotic cells at 2 uM incubated for 24 hrs under normoxia condition by Annexin V-FITC staining based flow cytometry analysis; type: functional
A-375 [38] = assay: Induction of apoptosis in human A-375 cells assessed as late apoptotic cells at 2 uM incubated for 24 hrs under normoxia condition by Annexin V-FITC staining based flow cytometry analysis; type: functional
A-375 [39] = assay: Induction of apoptosis in human A-375 cells assessed as necrotic cells at 2 uM incubated for 24 hrs under normoxia condition by Annexin V-FITC staining based flow cytometry analysis; type: functional
A-375 [40] = assay: Induction of apoptosis in human A-375 cells assessed as viable cells at 4 uM incubated for 24 hrs under normoxia condition by Annexin V-FITC staining based flow cytometry analysis; type: functional; settings: read-out: Activity
A-375 [41] = assay: Induction of apoptosis in human A-375 cells assessed as early apoptotic cells at 4 uM incubated for 24 hrs under normoxia condition by Annexin V-FITC staining based flow cytometry analysis; type: functional
A-375 [42] = assay: Induction of apoptosis in human A-375 cells assessed as late apoptotic cells at 4 uM incubated for 24 hrs under normoxia condition by Annexin V-FITC staining based flow cytometry analysis; type: functional
A-375 [43] = assay: Induction of apoptosis in human A-375 cells assessed as necrotic cells at 4 uM incubated for 24 hrs under normoxia condition by Annexin V-FITC staining based flow cytometry analysis; type: functional
A-375 [44] = assay: Induction of apoptosis in human A-375 cells assessed as viable cells at 6 uM incubated for 24 hrs under normoxia condition by Annexin V-FITC staining based flow cytometry analysis; type: functional; settings: read-out: Activity
A-375 [45] = assay: Induction of apoptosis in human A-375 cells assessed as early apoptotic cells at 6 uM incubated for 24 hrs under normoxia condition by Annexin V-FITC staining based flow cytometry analysis; type: functional
A-375 [46] = assay: Induction of apoptosis in human A-375 cells assessed as late apoptotic cells at 6 uM incubated for 24 hrs under normoxia condition by Annexin V-FITC staining based flow cytometry analysis; type: functional
A-375 [47] = assay: Induction of apoptosis in human A-375 cells assessed as necrotic cells at 6 uM incubated for 24 hrs under normoxia condition by Annexin V-FITC staining based flow cytometry analysis; type: functional

## CC1=C(Br)C(C)=[N+]2C1=C(c1ccccc1)c1c(C)c(Br)c(/C=C/c3ccc(O)cc3)n1[B-]2(F)F
[1]
  Stability: Stable
[2]
  Stability: Stable
[3]
  Activity: Active
A-375 [4]
  Activity: >80%
A-375 [5]
  viability at 100 µM: ~50%
[6]
  viability at 4 h, 100 µM: > 90%
A-375 [7]
  Activity: Active
A-375 [8]
  Activity: Active
A-375 [9]
  Activity: Active
A-375 [10]
  Activity: Active
A-375 [11]
  IC50: > 100 µM
A-375 [12]
  IC50: > 16 µM
A-375 [13]
  IC50: 6.99 µM
A-375 [14]
  IC50: 0.77 µM
[15]
  Ratio IC50: 309.63
A-375 [16]
  Activity: Active
A-375 [17]
  Activity: Active
[18]
  Retention_time: 3.5 min
A-375 [19]
  Activity: Active
A-375 [20]
  Activity: Active
A-375 [21]
  inhibition in vivo at 2900 µg/mL: 71%
[22]
  Activity: Non-toxic
[23]
  Activity: Non-toxic

## CC1=C(Br)C(C)=[N+]2C1=C(c1ccccc1)c1c(C)c(Br)c(/C=C/c3ccc(OCc4ccc(/N=N/c5ccc(N(CCCl)CCCl)cc5)cc4)cc3)n1[B-]2(F)F
[1]
  Stability: Stable
[2]
  Stability: Stable
[3]
  Activity: Active
A-375 [4]
  Activity: >80%
A-375 [5]
  viability at 100 µM: ~50%
[6]
  viability at 4 h, 100 µM: > 90%
A-375 [7]
  Activity: Active
A-375 [9]
  Activity: Active
A-375 [10]
  Activity: Active
A-375 [11]
  IC50: > 100 µM
A-375 [12]
  IC50: > 16 µM
A-375 [13]
  IC50: 1.35 µM
A-375 [14]
  IC50: 4.18 µM
[15]
  Ratio IC50: 11.02
A-375 [16]
  Activity: Active
A-375 [17]
  Activity: Active
[18]
  Retention_time: 1.422 min
A-375 [24]
  viability at 2 µM: 96.3%
A-375 [25]
  Activity: 0.809%
A-375 [26]
  Activity: 1.663%
A-375 [27]
  Activity: 13.664%
A-375 [28]
  viability at 4 µM: 94.8%
A-375 [29]
  Activity: 0.147%
A-375 [30]
  Activity: 3.098%
A-375 [31]
  Activity: 0.975%
A-375 [32]
  viability at 6 µM: 93.6%
A-375 [33]
  Activity: 1.832%
A-375 [34]
  Activity: 3.285%
A-375 [35]
  Activity: 1.274%
A-375 [36]
  viability at 2 µM: 92.7%
A-375 [37]
  Activity: 4.467%
A-375 [38]
  Activity: 2.806%
A-375 [39]
  Activity: 0.058%
A-375 [40]
  viability at 4 µM: 85.5%
A-375 [41]
  Activity: 7.534%
A-375 [42]
  Activity: 6.769%
A-375 [43]
  Activity: 0.185%
A-375 [44]
  viability at 6 µM: 71.7%
A-375 [45]
  Activity: 12.663%
A-375 [46]
  Activity: 15.404%
A-375 [47]
  Activity: 0.247%
A-375 [21]
  inhibition in vivo at 2900 µg/mL: 92%
